# Target: human PAD4 (Homo sapiens (Human), UniProt Q9UM07)
# Assay: In Vitro PAD4 BAEE Biochemical Assay
# Conditions: human PAD4, BAEE substrate; 5 nM PAD4, 2 mM calcium chloride, 3 mM BAEE; geometric mean of multiple experiments
# How it was run: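 Recombinant human PAD4 (His-SUMO tag removed, E. coli-expressed), 5 nM, preincubated with compound and 2 mM CaCl2 30 min at 25 °C in MOPS pH 7.6 with DTT; 3 mM BAEE added for 2 h at 25 °C, EDTA stop. Released ammonia detected by o-phthalaldehyde/DTT fluorescence (ex 405, em 535 nm).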
# human PAD4, sequence (Q9UM07 2-663): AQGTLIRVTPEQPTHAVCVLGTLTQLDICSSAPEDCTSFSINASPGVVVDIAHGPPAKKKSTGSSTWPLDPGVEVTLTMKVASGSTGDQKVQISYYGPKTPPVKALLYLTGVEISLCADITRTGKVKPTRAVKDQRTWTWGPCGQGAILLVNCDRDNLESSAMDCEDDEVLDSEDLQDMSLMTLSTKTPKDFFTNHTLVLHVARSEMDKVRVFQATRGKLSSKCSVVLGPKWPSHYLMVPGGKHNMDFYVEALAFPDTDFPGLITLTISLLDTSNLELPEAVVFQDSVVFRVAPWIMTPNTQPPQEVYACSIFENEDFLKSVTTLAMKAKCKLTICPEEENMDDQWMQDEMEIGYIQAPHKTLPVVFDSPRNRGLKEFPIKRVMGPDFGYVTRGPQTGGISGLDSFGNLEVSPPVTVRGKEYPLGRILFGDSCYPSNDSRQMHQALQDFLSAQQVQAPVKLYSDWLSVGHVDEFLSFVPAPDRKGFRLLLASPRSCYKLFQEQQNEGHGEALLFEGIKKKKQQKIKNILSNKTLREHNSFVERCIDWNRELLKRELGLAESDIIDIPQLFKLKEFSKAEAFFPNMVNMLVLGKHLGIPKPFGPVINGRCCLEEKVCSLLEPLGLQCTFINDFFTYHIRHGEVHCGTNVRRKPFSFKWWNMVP
row,Structure (SMILES),IC50
1,"COc1cc(C(=O)N2C[C@H](N)CCN2C)cc2nc(-c3cc4ccc([C@@H](C)NC(=O)c5nc(C)cc(C(F)(F)F)n5)nc4n3CC3CC3)n(C)c12 [Example 183, N-((R)-1-(2-(5-((R)-5-amino-2-methylhexahydropyridazine-1-carbonyl)-7-methoxy-1-methyl-1H-benzo[d]imidazol-2-yl)-1-(cyclopropylmethyl)-1H-pyrrolo[2,3-b]pyridin-6-yl)ethyl)-4-methyl-6-(trifluoromethyl)pyrimidine-2-carboxamide]",198 nM
2,"COc1cc(C(=O)N2C[C@H](N)CCN2C)cc2nc(-c3cc4ccc([C@@H](C)NC(=O)c5c(C)cccc5C(F)(F)F)nc4n3CC3CC3)n(C)c12 [Example 184, N-((R)-1-(2-(5-((R)-5-amino-2-methylhexahydropyridazine-1-carbonyl)-7-methoxy-1-methyl-1H-benzo[d]imidazol-2-yl)-1-(cyclopropylmethyl)-1H-pyrrolo[2,3-b]pyridin-6-yl)ethyl)-2-methyl-6-(trifluoromethyl)benzamide]",204 nM
3,"COc1cc(C(=O)N2C[C@H](N)CCN2C)cc2nc(-c3cc4ccc([C@@H](C)NC(=O)C56CC(Cl)(C5)C6)nc4n3CC3CC3)n(C)c12 [Example 186, N—((R)-1-(2-(5-((R)-5-amino-2-methylhexahydropyridazine-1-carbonyl)-7-methoxy-1-methyl-1H-benzo[d]imidazol-2-yl)-1-(cyclopropylmethyl)-1H-pyrrolo[2,3-b]pyridin-6-yl)ethyl)-3-chlorobicyclo[1.1.1]pentane-1-carboxamide]",105 nM
4,"COc1cc(C(=O)N2C[C@H](N)CCN2C)cc2nc(-c3cc4ccc([C@@H](C)NC(=O)C56CC(C(F)(F)F)(C5)C6)nc4n3CC3CC3)n(C)c12 [Example 188, N-((R)-1-(2-(5-((R)-5-amino-2-methylhexahydropyridazine-1-carbonyl)-7-methoxy-1-methyl-1H-benzo[d]imidazol-2-yl)-1-(cyclopropylmethyl)-1H-pyrrolo[2,3-b]pyridin-6-yl)ethyl)-3-(trifluoromethyl)bicyclo [1.1.1]pentane-1-carboxamide]",149 nM

# Other lines, results leading:
row,IC50,Structure (SMILES)
1,104 nM,"COc1cc(C(=O)N2C[C@H](N)CCN2C)cc2nc(-c3cc4ccc([C@@H](C)NC(=O)c5nccc(C(F)(F)F)n5)nc4n3CC3CC3)n(C)c12 [Example 182, N-((R)-1-(2-(5-((R)-5-amino-2-methylhexahydropyridazine-1-carbonyl)-7-methoxy-1-methyl-1H-benzo[d]imidazol-2-yl)-1-(cyclopropylmethyl)-1H-pyrrolo[2,3-b]pyridin-6-yl)ethyl)-4-(trifluoromethyl)pyrimidine-2-carboxamide]"
2,82.1 nM,"COc1cc(C(=O)N2C[C@H](N)CCN2C)cc2nc(-c3cc4ccc([C@@H](C)NC(=O)C56CC(C5)C6)nc4n3CC3CC3)n(C)c12 [Example 185, N-((R)-1-(2-(5-((R)-5-amino-2-methylhexahydropyridazine-1-carbonyl)-7-methoxy-1-methyl-1H-benzo[d]imidazol-2-yl)-1-(cyclopropylmethyl)-1H-pyrrolo[2,3-b]pyridin-6-yl)ethyl)bicyclo[1.1.1]pentane-1-carboxamide]"
3,96.9 nM,"COc1cc(C(=O)N2C[C@H](N)CCN2C)cc2nc(-c3cc4ccc([C@@H](C)NC(=O)C56CC(C)(C5)C6)nc4n3CC3CC3)n(C)c12 [Example 187, N-((R)-1-(2-(5-((R)-5-amino-2-methylhexahydropyridazine-1-carbonyl)-7-methoxy-1-methyl-1H-benzo[d]imidazol-2-yl)-1-(cyclopropylmethyl)-1H-pyrrolo[2,3-b]pyridin-6-yl)ethyl)-3-methylbicyclo[1.1.1]pentane-1-carboxamide]"
